Assay results taken from patent US20220370326A1, “TOPICAL COMPOSITIONS AND METHODS OF USING SAME AGAINST MITOCHONDRIAL FRAGMENTATION” (Conopco, Inc., d/b/a UNILEVER, priority 2019, published 2022).
Marks after values point to notes of the source that are not given here.

Test system: human keratinocytes
Test: Mitochondrial fragmentation in keratinocytes - UV study (TPEF imaging of NADH, Fourier PSD analysis)
Format: cell-based
Settings: B3 10 mM, SAMe 500 uM; for Effect on mitochondrial fragmentation in Non UV-exposed keratinocytes (in words) / Effect on UV-induced mitochondrial fragmentation (in words): significance P </= 0.05; for Mitochondrial Fragmentation, (+) UV (4 days) / Mitochondrial Fragmentation, (−) UV (3 days): human keratinocytes, higher value = less protection; for Mitochondrial Fragmentation, (+) UV (4 days): 4 days of daily UV exposure (4 J/cm^2 UVA+UVB, 14 min); for Mitochondrial Fragmentation, (−) UV (3 days): not UV-exposed, 3 days of treatment; for Effect on UV-induced mitochondrial fragmentation (in words): keratinocytes, UV exposure for 4 days
Experimental: Test compounds (B3 and SAMe) were purchased from Sigma (St. Loius, MO). Cell culture growth media (Epilife media with calcium (Cat#MEPI500CA) and Epilife media supplement HKGS 100X (Cat#S-001-5)) was purchased from Thermofisher (Waltham, Mass.). Cryopreserved human keratinocytes cells (˜1×10^6 cells) were plated on 12-well glass bottom plates at a confluence of ˜15%. The cells were suspended in primary keratinocyte growth media (Epilife media with calcium) and incubated @ 37° C. for 1d (Day 0). At Day 1, cells began treatment with supplemented primary keratinocyte growth media (Epilife media with calcium supplemented with HKGS 100X; […]) without test compound (Control sample) or containing test compounds B3 (10 mM), SAMe (500 μM) or B3 (10 mM)+SAMe (500 uM). Cell treatment (25m1 media with or without test compounds as above) continued daily for 2 additional days (Days 2 and 3). On Day 4, cells were subjected to UV treatment by replacing media with PBS, exposing cells to UV light (4 J/cm^2 of UVA+UVB) for 14 min and feeding cells with media with or without corresponding test compounds as defined above. UV treatments continued daily for 3 additional days (Days 5, 6 and 7). Image acquisition and analysis on all wells to assess mitochondrial fragmentation was conducted on Day 1, 3, 5 and 8.
For two-photon excited fluorescence (TPEF) imaging, cell cultures were placed in microscope-compatible micro-incubator system, which maintained 37° C. within a humidified environment throughout the imaging session. HEPES buffering agent (Sigma) was added to cell cultures before imaging, which maintained the pH of cell cultures throughout the imaging session. Images were obtained using a Leica TCS SP8 confocal microscope equipped with a tunable (680-1300 nm) titanium-sapphire laser (InSight Deep See; Spectra Physics; Mountain View, Calif.). Images (1024×1024 pixels; 386×386 μm) were acquired using water-immersion 25x objective (NA 0.95; 2.4 mm working distance), with simultaneous collection by two non-descanned photomultiplier tube (PMT) detectors using a filter cube containing filters from Chroma (Bellows Falls, VT), including a 700 nm short pass filter (ET700SP-2P) and a 495 nm dichroic mirror (495DCXR). To isolate NADH fluorescence, a 460(±20) nm emission filter (Chroma, ET460/40M-2P), corresponding to the NADH emission peak, was placed before one of the non-descanned detectors. NADH fluorescence images were acquired from this 460 nm channel using 755 nm excitation. FAD fluorescence was isolated using a 525(±25) nm emission filter (Chroma, ET525/50M-2P) for the other non-descanned detector and 860 nm excitation. The two-photon action cross section of NADH decreases by several orders of magnitude between 755 nm and 860 nm excitation, enabling an efficient isolation of FAD at longer wavelengths. The fluorescence lifetime images (512×512 pixels; 386×386 μm) corresponding to NADH were acquired under the same excitation and emission settings, using SymPho software. PMT gain was adjusted for each image to maximize contrast while preventing a saturated pixel intensity value. The PMT gain and laser power were recorded for each image and used to normalize fluorescence intensity.
To assess mitochondrial fragmentation, a previously-established Fourier transform technique was used to obtain power spectral density (PSD) curves from each image. […]

NC(=O)c1cccnc1 [B3, Nicotinamide]
Effect on mitochondrial fragmentation in Non UV-exposed keratinocytes (in words): does not significantly reduce mitochondrial fragmentation | Mitochondrial Fragmentation, (+) UV (4 days): 1.34 ^d | Mitochondrial Fragmentation, (−) UV (3 days): 1.18 | Effect on UV-induced mitochondrial fragmentation (in words): effective at reducing this UV-induced effect down to control levels

C[S+](CC[C@H](N)C(=O)[O-])C[C@H]1O[C@@H](n2cnc3c(N)ncnc32)[C@H](O)[C@@H]1O (stereo partly drawn) [SAMe, S-adenosyl-L-methionine]
Effect on mitochondrial fragmentation in Non UV-exposed keratinocytes (in words): does not significantly reduce mitochondrial fragmentation | Mitochondrial Fragmentation, (+) UV (4 days): 1.58 ^c,e | Mitochondrial Fragmentation, (−) UV (3 days): 1.30 | Effect on UV-induced mitochondrial fragmentation (in words): increases mitochondrial fragmentation beyond UV-exposed levels
